Columns and labels:
[1] = tested on: velvetleaf; experiment: Test B pre/postemergence velvetleaf; format: in vivo, Abutilon theophrasti
Outline: (§1)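 Test chemicals in a non-phytotoxic solvent mixture with surfactant were sprayed preemergence onto planted seeds and postemergence onto plants 2 to 18 cm tall (1- to 4-leaf stage). After twelve to sixteen days in a greenhouse, injury was visually rated against untreated controls from 0 (no effect) to 10 (complete control).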

[2] = tested on: wild oat; experiment: Test B pre/postemergence wild oat; format: in vivo, Avena fatua
Outline: as §1

[3] = tested on: smallflower flatsedge; experiment: Test B flood test smallflower flatsedge; format: in vivo, Cyperus difformis
Outline: (§2)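 Plants were grown to the 2-leaf stage before treatment with test chemical, then held in a greenhouse for twelve to sixteen days. Injury was visually rated against untreated controls on a 0–10 scale, where 0 is no effect and 10 is complete control.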

[4] = tested on: bamyardgrass; experiment: Test B flood test barnyardgrass; format: in vivo, Echinochloa crus-galli
Outline: as §2

[5] = tested on: cocklebur; experiment: Test B pre/postemergence cocklebur; format: in vivo, Xanthium strumarium
Outline: as §1

[6] = tested on: bedstraw; experiment: Test B pre/postemergence bedstraw; format: in vivo, Galium aparine
Outline: as §1

[7] = tested on: purple nutsedge; experiment: Test B pre/postemergence purple nutsedge; format: in vivo, Cyperus rotundus
Outline: as §1

[8] = tested on: sugar beet; experiment: Test B pre/postemergence sugar beet; format: in vivo, Beta vulgaris
Outline: as §1

[9] = tested on: corn; experiment: Test B pre/postemergence corn; format: in vivo, Zea mays
Outline: as §1

[10] = tested on: duck salad; experiment: Test B flood test duck salad; format: in vivo, Heteranthera limosa
Outline: as §2

[11] = tested on: rape; experiment: Test B pre/postemergence rape; format: in vivo, Brassica napus
Outline: as §1

[12] = tested on: blackgrass; experiment: Test B pre/postemergence blackgrass; format: in vivo, Alopecurus myosuroides
Outline: as §1

[13] = tested on: rice; experiment: Test B flood test rice; format: in vivo, Oryza sativa
Outline: as §2

[14] = tested on: crabgrass; experiment: Test B pre/postemergence crabgrass; format: in vivo, Digitaria sanguinalis
Outline: as §1

[15] = tested on: wheat; experiment: Test B pre/postemergence wheat; format: in vivo, Triticum aestivum
Outline: as §1

[16] = tested on: surinam grass; experiment: Test B pre/postemergence surinam grass; format: in vivo, Brachiaria decumbens
Outline: as §1

[17] = tested on: soybean; experiment: Test B pre/postemergence soybean; format: in vivo, Glycine max
Outline: as §1

[18] = Postemergence, Rate 250 g/ha, scale 0 to 10, 0 no effect, 10 complete control
[19] = Postemergence, Rate 1000 g/ha, scale 0 to 10 (0 no effect, 10 complete control)
[20] = Preemergence, Rate 125 g/ha, scale 0 to 10 (0 no effect, 10 complete control)
[21] = Preemergence, Rate 250 g/ha, scale of 0 to 10 where 0 is no effect and 10 is complete control
[22] = Preemergence, Rate 500 g/ha, scale 0 (no effect) to 10 (complete control)
[23] = Rate 125 g/ha, Postemergence, scale 0 to 10, 0 no effect, 10 complete control
[24] = Rate 1000 g/ha, Preemergence, scale 0 to 10 (0 no effect, 10 complete control)
[25] = Rate 125 g/ha, Postemergence section (flood test species), scale 0 to 10, 0 no effect, 10 complete control
[26] = flood test, listed under Postemergence, Rate 250 g/ha, scale 0 to 10, 0 no effect, 10 complete control
[27] = Rate 500 g/ha, Postemergence section of Table B, 0 to 10 scale (0 no effect, 10 complete control)
[28] = Rate 500 g/ha, Postemergence, 0 to 10 scale (0 no effect, 10 complete control)

CCN(CC)C(=O)n1oc(=O)n(-c2ccc(OC(F)(F)F)cc2)c1=O [Compound 12]
0: Velvetleaf plant response rating [1, 18] | Velvetleaf plant response rating [1, 19] | Plant response rating, Velvetleaf [1, 20] | Plant response rating, Velvetleaf [1, 21] | Velvetleaf plant response rating [1, 22] | Velvetleaf plant response rating [1, 23] | Plant response rating, Velvetleaf [1, 24] | Wild oats plant response rating [2, 18] | Wild oats plant response rating [2, 19] | Plant response rating, Wild oats [2, 20] | Plant response rating, Wild oats [2, 21] | Wild oats plant response rating [2, 22] | Wild oats plant response rating [2, 23] | Plant response rating, Wild oats [2, 24] | S. Flatsedge plant response rating [3, 19] | S. Flatsedge plant response rating [3, 25] | S. Flatsedge plant response rating [3, 26] | Barnyardgrass plant response rating [4, 19] | Barnyardgrass plant response rating [4, 25] | Barnyardgrass plant response rating [4, 27] | Barnyardgrass plant response rating [4, 26] | Cocklebur plant response rating [5, 18] | Cocklebur plant response rating [5, 19] | Plant response rating, Cocklebur [5, 20] | Plant response rating, Cocklebur [5, 21] | Cocklebur plant response rating [5, 22] | Cocklebur plant response rating [5, 23] | Cocklebur plant response rating [5, 28] | Plant response rating, Cocklebur [5, 24] | Bedstraw plant response rating [6, 18] | Bedstraw plant response rating [6, 19] | Plant response rating, Bedstraw [6, 20] | Plant response rating, Bedstraw [6, 21] | Bedstraw plant response rating [6, 22] | Bedstraw plant response rating [6, 23] | Bedstraw plant response rating [6, 28] | Plant response rating, Bedstraw [6, 24] | Nutsedge plant response rating [7, 18] | Nutsedge plant response rating [7, 19] | Plant response rating, Nutsedge [7, 20] | Plant response rating, Nutsedge [7, 21] | Nutsedge plant response rating [7, 22] | Nutsedge plant response rating [7, 23] | Nutsedge plant response rating [7, 28] | Plant response rating, Nutsedge [7, 24] | Sugarbeets plant response rating [8, 18] | Sugarbeets plant response rating [8, 19] | Plant response rating, Sugarbeets [8, 20] | Plant response rating, Sugarbeets [8, 21] | Sugarbeets plant response rating [8, 22] | Sugarbeets plant response rating [8, 23] | Plant response rating, Sugarbeets [8, 24] | Corn plant response rating [9, 18] | Corn plant response rating [9, 19] | Plant response rating, Corn [9, 20] | Plant response rating, Corn [9, 21] | Corn plant response rating [9, 22] | Corn plant response rating [9, 23] | Corn plant response rating [9, 28] | Plant response rating, Corn [9, 24] | Ducksalad plant response rating [10, 19] | Ducksalad plant response rating [10, 25] | Ducksalad plant response rating [10, 27] | Ducksalad plant response rating [10, 26] | Rape plant response rating [11, 18] | Rape plant response rating [11, 19] | Plant response rating, Rape [11, 20] | Plant response rating, Rape [11, 21] | Rape plant response rating [11, 22] | Rape plant response rating [11, 23] | Rape plant response rating [11, 28] | Plant response rating, Rape [11, 24] | Blackgrass plant response rating [12, 18] | Blackgrass plant response rating [12, 19] | Plant response rating, Blackgrass [12, 20] | Plant response rating, Blackgrass [12, 21] | Blackgrass plant response rating [12, 23] | Blackgrass plant response rating [12, 28] | Rice plant response rating [13, 19] | Rice plant response rating [13, 25] | Rice plant response rating [13, 27] | Rice plant response rating [13, 26] | Crabgrass plant response rating [14, 18] | Crabgrass plant response rating [14, 19] | Plant response rating, Crabgrass [14, 20] | Plant response rating, Crabgrass [14, 21] | Crabgrass plant response rating [14, 22] | Crabgrass plant response rating [14, 23] | Crabgrass plant response rating [14, 28] | Wheat plant response rating [15, 18] | Wheat plant response rating [15, 19] | Plant response rating, Wheat [15, 20] | Plant response rating, Wheat [15, 21] | Wheat plant response rating [15, 22] | Wheat plant response rating [15, 23] | Plant response rating, Wheat [15, 24] | B. signalgrass plant response rating [16, 18] | B. signalgrass plant response rating [16, 19] | Plant response rating, B. signalgrass [16, 20] | Plant response rating, B. signalgrass [16, 21] | B. signalgrass plant response rating [16, 22] | B. signalgrass plant response rating [16, 23] | B. signalgrass plant response rating [16, 28] | Soybean plant response rating [17, 18] | Plant response rating, Soybean [17, 20] | Plant response rating, Soybean [17, 21] | Soybean plant response rating [17, 22] | Soybean plant response rating [17, 23] | Plant response rating, Soybean [17, 24]
6: Plant response rating, Crabgrass [14, 24] | Plant response rating, B. signalgrass [16, 24]
4: Plant response rating, Blackgrass [12, 24]
1: Soybean plant response rating [17, 19]
2: Blackgrass plant response rating [12, 22]
